{"source": "patent US20240024093A1", "about": "“INTRAOCULAR DRUG DELIVERY SYSTEMS AND METHODS OF USE” (SpyGlass Pharma, Inc., priority 2022, published 2024)", "key": {"[1]": {"test": "daily release or elution of Bimatoprost in vitro versus time (FIG. 8)", "format": "physicochemical", "conditions": "four-hundred-day study", "description": "FIG. 8 is an exemplary graph of daily release or elution of a pharmaceutical or therapeutic agent in vitro versus time. […] The target release rate in this study on rabbits was 0.050 to 0.100 micrograms per day."}, "[2]": {"test": "Bimatoprost sampled in the aqueous humor of dogs over time (FIG. 9)", "format": "in vivo", "description": "FIG. 9 is an exemplary graph of a therapeutic agent delivered to the aqueous humor of an eye of canines versus time.\nIn this example, there was a low dose group of dogs (Grp 1), a mid-dose group of dogs (Grp 2), a high dose group of dogs (Grp 3), and a placebo group of dogs (Grp 4)."}}}
{"compound": "CCNC(=O)CCC/C=C\\C[C@@H]1[C@@H](/C=C/[C@@H](O)CCc2ccccc2)[C@H](O)C[C@@H]1O", "note": "[Bimatoprost]", "values": [{"measurement": "average release rate", "setting": "[1]", "result": "less than 0.100 micrograms per day"}, {"measurement": "release rate over the study (release kinetics)", "setting": "[1]", "result": "essentially a zero-order and/or a steady state elution rate"}, {"measurement": "level of Bimatoprost in the aqueous humor (elution kinetics)", "setting": "[2]; low dose (Grp 1), mid-dose (Grp 2), high dose (Grp 3) groups, study period of about one hundred thirteen days", "result": "zero-order elution rate"}, {"measurement": "mean measurements of Bimatoprost in the aqueous humor (dose dependence)", "setting": "[2]; low, mid and high dose groups, FIG. 9", "result": "increased with the higher doses"}]}
